Source: patent US11618749B2, “Compounds and compositions for treating conditions associated with STING activity” (IFM Due, Inc., priority 2018, dated 2023)

Biological target: T1, hSTING (Homo sapiens, UniProt Q86WV6, G230A/H232R/R293Q/R71H)
T1 construct: host or cells: THP1-Dual KO-IFNAR2 cells
Test: STING reporter assay (luciferase reporter) in THP1-Dual KO-IFNAR2 cells activated with 2′3′cGAMP
Type: cell-based
Details: 15 μM 2′3′cGAMP, 24 h, luciferase reporter activity
Experimental: STING pathway activation by the compounds described herein is measured using THP1-Dual™ cells (KO-IFNAR2).
THP1-Dual™ KO-IFNAR2 Cells (obtained from invivogen) are maintained in RPMI, 10% FCS, 5 ml P/S, 2 mM L-glut, 10 mM Hepes, and 1 mM sodium pyruvate. Compounds are spotted in empty 384 well tissue culture plates (Greiner 781182) by Echo for a final concentration of […]. Cells are plated into the TC plates at 40 μL per well, 2×10E6 cells/mL. For activation with STING ligand, 2′3′cGAMP (MW 718.38, obtained from Invivogen), is prepared in Optimem media.
The following solutions are prepared for each 1×384 plate: • Solution A: 2 mL Optimem with one of the following stimuli: • 60 uL of 10 mM 2′3′cGAMP→150 μM stock • Solution B: 2 mL Optimem with 60 μL Lipofectamine 2000→Incubate 5 min at RT
2 mL of solution A and 2 ml Solution B is mixed and incubated for 20 min at room temperature (RT). 20 uL of transfection solution (A+B) is added on top of the plated cells, with a final 2′3′cGAMP concentration of 15 μM. The plates are then centrifuged immediately at 340 g for 1 minute, after which they are incubated at 37° C., 5% CO2, >98% humidity for 24 h. Luciferase reporter activity is then measured. EC50 values were calculated by using standard methods known in the art.
Luciferase Reporter Assay:
10 μL of supernatant from the assay is transferred to white 384-plate with flat bottom and squared wells. one pouch of QUANTI-Luc™ Plus is dissolved in 25 mL of water. 100 μL of QLC Stabilizer per 25 mL of QUANTI-Luc™ Plus solution was added. 50 μL of QUANTI-Luc™ Plus/QLC solution per well is then added. Luminescence is measured on a Platereader (e.g., Spectramax I3X (Molecular Devices GF3637001)).
Luciferase reporter activity is then measured. EC50 values are calculated by using standard methods known in the art.

T1 sequence (Q86WV6 whole entry R71H/G230A/H232R/R293Q): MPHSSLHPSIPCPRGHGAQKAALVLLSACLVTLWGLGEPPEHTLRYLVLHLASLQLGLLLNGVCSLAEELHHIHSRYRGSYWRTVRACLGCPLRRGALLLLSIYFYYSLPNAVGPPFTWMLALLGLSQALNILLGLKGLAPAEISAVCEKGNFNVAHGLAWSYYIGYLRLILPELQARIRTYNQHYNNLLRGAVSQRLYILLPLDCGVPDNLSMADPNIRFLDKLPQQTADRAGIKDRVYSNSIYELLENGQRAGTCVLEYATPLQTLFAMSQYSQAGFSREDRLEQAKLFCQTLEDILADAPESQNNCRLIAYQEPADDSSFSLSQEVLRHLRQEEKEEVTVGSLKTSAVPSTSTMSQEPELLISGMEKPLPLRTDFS

Compound	EC50
O=C(Nc1ccc(C(F)(F)F)nc1)Nc1c[nH]c2ncccc12 [Compound 257]	5000 to 100000 nM
O=C(Nc1c[nH]c2ncc(F)cc12)NC1CCC(C(F)(F)F)CC1 (centres unmarked) [Compound 270]	5000 to 100000 nM
CC(NC(=O)Nc1c[nH]c2ncc(F)cc12)c1ccc2c(c1)OCCO2 (centres unmarked) [Compound 279]	5000 to 100000 nM
O=C(Nc1cccc2c1CCCC2)Nc1c[nH]c2ncc(F)cc12 [Compound 284]	1000 to 5000 nM
CCCCC1CCC(NC(=O)Nc2c[nH]c3ncccc23)C1 (centres unmarked) [Compound 285]	1000 to 5000 nM
Cc1nc2cc(NC(=O)Nc3c[nH]c4ncc(F)cc34)ccc2s1 [Compound 286]	1000 to 5000 nM
O=C(Nc1ccc2ccncc2c1)Nc1c[nH]c2ncc(F)cc12 [Compound 287]	1000 to 5000 nM
O=C(Nc1ccc2cnccc2c1)Nc1c[nH]c2ncc(F)cc12 [Compound 288]	5000 to 100000 nM
O=C(Nc1c[nH]c2ncccc12)N1CC(c2ccccc2)C1 [Compound 289]	5000 to 100000 nM
CCCCC1CCN(C(=O)Nc2c[nH]c3ncc(F)cc23)CC1 [Compound 294]	5000 to 100000 nM
O=C(Nc1cc(F)cc(F)c1)Nc1c[nH]c2ncc(F)cc12 [Compound 298]	1000 to 5000 nM
O=C(Nc1cc(F)cc(F)c1)Nc1c[nH]c2ncccc12 [Compound 299]	5000 to 100000 nM
O=C(Nc1c[nH]c2ncccc12)N1CCCc2ccccc21 [Compound 301]	5000 to 100000 nM
O=C(Nc1c[nH]c2ncccc12)NC1Cc2ccccc2C1 [Compound 302]	5000 to 100000 nM
O=C(Nc1c[nH]c2ncccc12)N1CCc2ccccc21 [Compound 303]	5000 to 100000 nM
O=C(Nc1c[nH]c2ncccc12)NC1CCCC(c2ccccc2)C1 (centres unmarked) [Compound 304]	5000 to 100000 nM
O=C(Nc1c[nH]c2ncc(F)cc12)NC1CCC2(CC1)CC2 [Compound 305]	1000 to 5000 nM
O=C(Nc1c[nH]c2ncccc12)N1CCc2ccccc2C1 [Compound 306]	5000 to 100000 nM

Compound	EC50
O=C(Nc1c[nH]c2ncccc12)N1CCCC(c2ccccc2)C1 (centres unmarked) [Compound 307]	5000 to 100000 nM
O=C(Nc1ccc(C2CCCCC2)nc1)Nc1c[nH]c2cnccc12 [Compound 312]	1000 to 5000 nM
O=C(Nc1ccc(C2CCCCC2)cn1)Nc1c[nH]c2cnccc12 [Compound 313]	1000 to 5000 nM
CCCCC1CCC(NC(=O)Nc2c[nH]c3cnccc23)CC1 (centres unmarked) [Compound 314]	1000 to 5000 nM
O=C(Nc1ccc(C2CCCCC2)nc1)Nc1c[nH]c2ccncc12 [Compound 315]	1000 to 5000 nM
O=C(Nc1ccc(C(F)(F)F)nc1)Nc1c[nH]c2ccncc12 [Compound 318]	5000 to 100000 nM
O=C(Nc1ccc(C(F)(F)F)cn1)Nc1c[nH]c2ccncc12 [Compound 319]	1000 to 5000 nM
COc1nccc2[nH]cc(NC(=O)Nc3ccc(C(F)(F)F)cc3)c12 [Compound 320, 1-(4-methoxy-1H-pyrrolo[3,2-c]pyridin-3-yl)-3-(4-(trifluoromethyl)phenyl)urea]	5000 to 100000 nM
O=C(Nc1c[nH]c2ccncc12)NC1CCC(c2ccccc2)CC1 (centres unmarked) [Compound 321]	5000 to 100000 nM
CCCCC1CCC(NC(=O)Nc2c[nH]c3cccnc23)CC1 (centres unmarked) [Compound 322]	1000 to 5000 nM
C#Cc1ccc2[nH]cc(NC(=O)Nc3ccc(C(F)(F)F)cc3)c2n1 [Compound 324, 1-(5-ethynyl-1H-pyrrolo[3,2-b]pyridin-3-yl)-3-(4-(trifluoromethyl)phenyl)urea]	5000 to 100000 nM
O=C(Nc1c[nH]c2cccnc12)NC1CCC(c2ccccc2)CC1 (centres unmarked) [Compound 325]	5000 to 100000 nM
O=C(Nc1ccc(C(F)(F)F)cc1)Nc1c[nH]c2ccc(-c3ccccc3)nc12 [Compound 328, 1-(5-phenyl-1H-pyrrolo[3,2-b]pyridin-3-yl)-3-(4-(trifluoromethyl)phenyl)urea]	5000 to 100000 nM
O=C(Nc1ccc(C(F)(F)F)cc1)Nc1c[nH]c2cc(F)cnc12 [Compound 330]	1000 to 5000 nM
O=C(Nc1ccc(C2CCCCC2)nc1)Nc1c[nH]c2cccnc12 [Compound 331]	1000 to 5000 nM
O=C(Nc1cccc(C(F)(F)F)c1)Nc1c[nH]c2cccnc12 [Compound 332]	1000 to 5000 nM
O=C(Nc1c[nH]c2ccc(-c3ccccc3)nc12)NC1CCC(C(F)(F)F)CC1 (centres unmarked) [Compound 335]	1000 to 5000 nM
O=S(=O)(Nc1ccc(C(F)(F)F)cc1)Nc1c[nH]c2ncc(F)cc12 [Compound 337]	5000 to 100000 nM

Second part, the compound after the results:

EC50	Compound
200 to 1000 nM	CCCCc1ncc(NC(=O)Nc2c[nH]c3ncc(F)cc23)cc1F [Compound 255]
200 to 1000 nM	C#Cc1cnc2[nH]cc(NC(=O)Nc3ccc(C(F)(F)F)cc3)c2c1 [Compound 258, 1-(5-ethynyl-1H-pyrrolo[2,3-b]pyridin-3-yl)-3-(4-(trifluoromethyl)phenyl)urea]
200 to 1000 nM	CCCCc1ccc(NC(=O)Nc2c[nH]c3ncc(F)cc23)nc1 [Compound 259]
1000 to 5000 nM	O=C(Nc1cccc(C2CCCCC2)n1)Nc1c[nH]c2ncc(F)cc12 [Compound 260]
40 to 200 nM	O=C(Nc1ccc(C2CCCCC2)cn1)Nc1c[nH]c2ncc(F)cc12 [Compound 261]
200 to 1000 nM	O=C(Nc1ccc(C2CCCCC2)nc1)Nc1c[nH]c2ncccc12 [Compound 263]
200 to 1000 nM	O=C(Nc1ccc(C2CCCCC2)cn1)Nc1c[nH]c2ncccc12 [Compound 264]
200 to 1000 nM	O=C(Nc1ccc(C(F)(F)F)cn1)Nc1c[nH]c2ncccc12 [Compound 265]
1000 to 5000 nM	O=C(Nc1ccc(C(F)(F)F)cc1)Nc1c[nH]c2ncc(C3CCCCC3)cc12 [Compound 267, 3-[5-cyclohexyl-1H-pyrrolo[2,3-b]pyridin-3-yl]-1-[4-(trifluoromethyl)phenyl] urea]
200 to 1000 nM	CCc1cnc2[nH]cc(NC(=O)Nc3ccc(C(F)(F)F)cc3)c2c1 [Compound 268, 3-[5-ethyl-1H-pyrrolo[2,3-b]pyridin-3-yl]-1-[4-(trifluoromethyl)phenyl] urea]
200 to 1000 nM	O=C(Nc1cccc(C2CCCCC2)c1)Nc1c[nH]c2ncc(F)cc12 [Compound 271]
40 to 200 nM	O=C(Nc1ccc(C2CCCCC2)nc1)Nc1c[nH]c2ncc(F)cc12 [Compound 272]
200 to 1000 nM	CCCCC1CCC(NC(=O)Nc2c[nH]c3ncc(F)cc23)CC1 (centres unmarked) [Compound 273]
40 to 200 nM	CCCCc1cccc(NC(=O)Nc2c[nH]c3ncc(F)cc23)c1 [Compound 274]
40 to 200 nM	CCCCc1ccc(NC(=O)Nc2c[nH]c3ncc(F)cc23)cc1 [Compound 275]
200 to 1000 nM	C=Cc1cnc2[nH]cc(NC(=O)Nc3ccc(C(F)(F)F)cc3)c2c1 [Compound 276, 3-[5-ethenyl-1H-pyrrolo[2,3-b]pyridin-3-yl]-1-[4-(trifluoromethyl)phenyl] urea]

EC50	Compound
1000 to 5000 nM	O=C(Nc1ccc(F)cn1)Nc1c[nH]c2ncc(F)cc12 [Compound 280]
1000 to 5000 nM	O=C(Nc1ccc(C(F)(F)F)nc1)Nc1c[nH]c2ncc(F)cc12 [Compound 281]
200 to 1000 nM	O=C(Nc1ccc(C(F)(F)F)c(Cl)c1)Nc1c[nH]c2ncc(F)cc12 [Compound 282]
40 to 200 nM	O=C(Nc1ccc(C(F)(F)F)cc1)Nc1c[nH]c2ncc(Cl)cc12 [Compound 283]
40 to 200 nM	C#Cc1ccc(NC(=O)Nc2c[nH]c3ncc(F)cc23)cc1 [Compound 291]
200 to 1000 nM	O=C(Nc1nc2ccccc2s1)Nc1c[nH]c2ncc(F)cc12 [Compound 292]
200 to 1000 nM	O=C(Nc1ncc(-c2ccccc2)s1)Nc1c[nH]c2ncc(F)cc12 [Compound 293]
200 to 1000 nM	O=C(Nc1cnc(-c2ccccc2)s1)Nc1c[nH]c2ncc(F)cc12 [Compound 295]
40 to 200 nM	O=C(Nc1ccc2c(c1)CCCC2)Nc1c[nH]c2ncc(F)cc12 [Compound 296]
200 to 1000 nM	O=C(Nc1cccc(C(F)(F)F)c1)Nc1c[nH]c2ncc(F)cc12 [Compound 297]
200 to 1000 nM	O=C(Nc1c[nH]c2ncc(F)cc12)NC1CCC2(CCCCC2)CC1 [Compound 300]
200 to 1000 nM	O=C(Nc1ccc(C2CCCCC2)cn1)Nc1c[nH]c2ccncc12 [Compound 316]
200 to 1000 nM	CCCCC1CCC(NC(=O)Nc2c[nH]c3ccncc23)CC1 (centres unmarked) [Compound 317]
200 to 1000 nM	O=C(Nc1ccc(C2CCCCC2)cn1)Nc1c[nH]c2cccnc12 [Compound 326]
200 to 1000 nM	Cc1ccc2[nH]cc(NC(=O)Nc3ccc(C(F)(F)F)cc3)c2n1 [Compound 329]
200 to 1000 nM	CCCCC1CCC(N/C(=N\C#N)Nc2c[nH]c3cccnc23)CC1 (centres unmarked) [Compound 336]
